Assay results: patent US20140186329A1, “POLYPHENOL ANALOGS TO TREAT ISCHEMIA” (priority 2011, published 2014)
Read-outs that look alike come from different tables or passages of the source.

Assays:
[1] = system: HT22 cells; experiment: In vitro ischemia assay (HT22 cell IAA assay, MTT); assay type: cell-based, mouse
Experimental: Cell viability was determined by a modified version of 3-(4,5-dimethylthiazol-2-yl)-2,5-diphenyl tetrazolium bromide (MTT) assay based on the standard procedure (Maher, et al., Brain Research. (2007), supra). Cells were seeded onto 96-well microtiter plates at a density of 5×10^3 cells per well. For the in vitro ischemia assay, the next day, the medium was replaced with DMEM supplemented with 7.5% DFCS and the cells were treated with 20 μM iodoacetic acid (IAA) alone or in the presence of the different derivatives. After 2 hr the medium in each well was aspirated and replaced with fresh medium without IAA but containing the derivatives. 20 hr later, the medium in each well was aspirated and replaced with fresh medium containing 2.5 μg/ml MTT. After 4 hr of incubation at 37° C., the cells were solubilized with 100 μl of a solution containing 50% dimethylformamide and 20% SDS (pH 4.7). The absorbance at 570 nm was measured on the following day with a microplate reader (Molecular Devices). Results were confirmed by visual inspection of the wells. Controls included compound alone to test for toxicity and compound with no cells to test for interference with the assay chemistry.
For a primary screen, an in vitro ischemia model in combination with the HT22 nerve cell line (Maher, et al., Brain Research. (2007) 1173, 117-125) was chosen. […] To induce ischemia in the HT22 cells we used iodoacetic acid (IAA), a well-known, irreversible inhibitor of the glycolytic enzyme glyceraldehyde 3-phosphate dehydrogenase (G3PDH) (Winkler, et al., Exp. Eye Res. (2003) 76, 715-723). IAA has been used in a number of other studies to induce ischemia in nerve cells (Reshef, et al., Neurosci. Lett. (1997) 238, 37-40; Sperling, et al., Neursci. Lett. (2003) 351, 137-140; Rego, et al., Neurochem. Res. (1999) 24, 351-358; Sigalov, et al., J. Mol. Neurosci. (2000) 15, 147-154; and Reiner, et al., Neurosci. Lett. (1990) 119, 175-178), including several recent screens for neuroprotective molecules (Biraboneye, et al., J. Med. Chem. (2009) 52 (14), 4358-4369; Biraboneye, et al., Chem. Med. Chem. (2010) 5 (1), 79-85). The changes following IAA treatment of neural cells are very similar to those seen in animal models of ischemic stroke (Lipton, et al., Physiol. Rev. (1999) 79, 1431-1568) and include alterations in membrane potential (Reiner, et al., Neurosci. Lett. (1990) 119, 175-178), breakdown of phospholipids (Taylor, et al., J. Pharmacol. Exp. Ther. (1996) 276, 1224-1231), loss of ATP (Winkler, et al., Exp. Eye Res. (2003) 76, 715-723; Sperling, et al., Neursci. Lett. (2003) 351, 137-140) and an increase in reactive oxygen species (ROS) (Taylor, et al., J. Pharmacol. Exp. Ther. (1996), supra; and Sperling, et al., Neursci. Lett. (2003) 351, 137-140).
(§1) Cell viability was determined after 24 hr by the MTT assay. The ability to maintain GSH (GSH) was determined by treating HT22 cells with different doses of each derivative (1-10 μM) in the presence of 5 mM glutamate. After 24 hr cell extracts were prepared and analyzed for total GSH. Fisetin (10 μM) was used as a positive control. The ability to induce PC12 cell differentiation (PC 12 diff' n) was determined by treating PC12 cells in N2 medium with different doses of each derivative (1-10 μM) for 24 hr. Differentiation was assessed by visual inspection with Fisetin (10 μM) as a positive control. Anti-inflammatory activity (microglia) was assessed in N9 microglial cells treated with bacterial lipopolysaccharide alone or in the presence different doses of each derivative (1-10 μM) for 24 hr. Fisetin was used as a positive control. TEAC values, a measure of direct antioxidant activity, were determined using the ABTS decolorization assay.
For rapid screening of chemical libraries, a mouse HT22 hippocampal cell death assay induced by addition of the compound iodoacetic acid (IAA) was used. IAA is a well-known, irreversible inhibitor of the glycolytic enzyme glyceraldehyde 3-phosphate dehydrogenase (G3PDH). […]

[2] = system: HT22 cells; experiment: Maintenance of total GSH in the presence of glutamate; assay type: cell-based, mouse; settings: derivative 1-10 μM, 5 mM glutamate, 24 hr
Experimental: Total intracellular glutathione was determined by a chemical assay as described (Maher, P. et al., Free Radical Research. (2006) 40 (10), 1105-1111).
(§2) Three secondary screens allowed assessment of three key activities of Fisetin that are highly relevant to stroke, as well as other neurological disorders: maintenance of glutathione (GSH), the major endogenous cellular antioxidant, inhibition of LPS-induced microglial activation, an indicator of anti-inflammatory activity and PC 12 cell differentiation, a measure of neurotrophic activity. All of these activities are relevant to the nerve cell loss seen in stroke (Gelderblom, et al., Stroke. 2009, 40 (5), 1849-1857; Pandya, et al., Cent. Nerv. Syst. Agents. Med. Chem. (2011) April 27; Lewerenz, et al., J. Neurochem. (2010) 113 (2), 502-504). […] To assess GSH maintenance, total intracellular GSH levels after a 24 hr treatment with the compound both in the absence and presence of glutamate, an inducer of GSH loss and oxidative stress (Tan, et al., Curr. Top. Med. Chem. (2001) 1, 497-506; Maher, et al., Free Radical Research. (2006) 40 (10), 1105-1111) was measured. Inhibition of LPS-induced microglial activation was determined by treating N9 mouse microglial cells with LPS alone and in the presence of the compounds and assaying NO release into the medium 24 hr later (Zheng, et al., Int. Immunopharmacol. (2008) 8, (3), 484-494). PC12 cell differentiation was determined by treating PC12 cells with the compounds and looking at neurite outgrowth after 24 hr. In all cases, Fisetin was used as a positive control (Sagara, et al., J. Neurochem. (2004) 90, 1144-1155).
as §1

[3] = system: PC12 cells; experiment: PC12 cell differentiation (neurite outgrowth); assay type: cell-based; settings: N2 medium, derivative 1-10 μM, 24 hr, visual inspection
Experimental: PC 12 cells in N2 medium were treated with the derivatives (1-10 μM) or Fisetin (10 μM) as a positive control for 24 hr at which time the cells were scored for the presence of neurites. PC12 cells produce neurites much more rapidly when treated in N2 medium than when treated in regular growth medium. For each treatment, 100 cells in each of three separate fields were counted. Cells were scored positive if one or more neurites>1 cell body diameter in length were observed.
as §2, §1

[4] = TEAC, ABTS decolorization assay; settings: relative to Trolox
Experimental: TEAC values for the flavonoids were determined as described (Maher, P. et al., Free Radical Research. (2006), supra). Briefly, 250 μl of 2,2′-azinobis(3-ethylbenzothiazoline 6-sulfonate) (ABTS) treated overnight with potassium persulfate and diluted to an OD of ˜0.7 at 734 nm was added to 2.5 μl of a derivative solution in ethanol. The change in absorbance due to the reduction of the ABTS radical cation was measured at 734 nm for 4 min. To calculate the TEAC, the gradient of the plot of the percentage inhibition of absorbance vs. concentration for the derivative in question was divided by the gradient of the plot for Trolox.
as §1

[5] = HT22 cells, 20 μM IAA for 2 hr, viability after 24 hr by MTT
[6] = Mus musculus, HT-22, HT22 cells, 20 μM IAA for 2 hr, viability after 24 hr by MTT, read-out: EC50 in vitro ischemia
[7] = Mus musculus, HT-22, HT22 cells, 20 μM IAA, read-out: HT22 Cell IAA assay EC50

Structure (SMILES) | EC50 in vitro ischemia (μM) [1, 5] | GSH (ability to maintain GSH) [2] | PC12 diff'n (ability to induce PC12 cell differentiation) [3] | TEAC [4] | EC50 [1, 6] [nM] | EC50 [1, 7] [nM] | Emax ([1]; Mus musculus, HT-22, HT22 Cell IAA assay, read-out: Max Protection) [%] | fold improvement of neuroprotective activity/potency relative to Fisetin ([1]; in vitro ischemia, HT22/IAA) [fold] | fold enhancement of neuroprotective activity relative to CMS-027 ([1]; in vitro ischemia, HT22/IAA) [fold] | EC50 ([1]; HT22 cells, 20 μM IAA, read-out: HT22 Cell IAA assay EC50) [nM]
COc1ccc(-c2cc(OC)c3ccccc3n2)cc1O [CMS-001, 4-methoxy-2-(3-hydroxy, 4-methoxyphenyl) quinoline] | no | no | no | 0.24 |  |  |  |  |  | 
CCOc1ccc(-c2cc(=O)c3cc(C)c(C)cc3o2)cc1OCC [CMS-018, 2-(3,4-diethoxyphenyl)-6,7-dimethyl-4H-chromen-4-one] | no | no | no | 0.15 |  |  |  |  |  | 
COc1cc(-c2ccc(O)cc2O)nc2ccccc12 [CMS-083, 4-methoxy-2-(2,4-dihydroxyphenyl) quinoline] |  | no | no | 0.05 | > 500 |  |  |  |  | 
O=c1cc(-c2ccc(O)c(O)c2)oc2c1ccc1ccccc12 [CMS-02P, reference compound] |  | no | yes | 0.18 | 80 | ≤ 100 | 86 | ~40 |  | 
CC(C)Oc1cc(-c2ccc(N(C)C)cc2)nc2ccccc12 [CMS-112, 4-isopropoxy-2-(4-dimethylaminophenyl)quinoline] |  | no | no | 0.15 | 50 |  |  |  |  | 
COc1cc(-c2ccc([N+](=O)[O-])c(O)c2)nc2ccccc12 [CMS-111, 4-methoxy-2-(3-hydroxy-4-nitrophenyl)quinoline] | no | no | no | 0.18 |  |  |  |  |  | 
Cc1cc2oc(-c3ccc(O)c(O)c3)cc(=O)c2cc1C [CMS-028, 2-(3,4-dihydroxyphenyl)-6,7-dimethyl-4H-chromen-4-one] |  | no | no | 0.27 | 250 |  |  |  | 2 | 
COc1ccc(/C=C/C(=O)c2cc(C)c(C)cc2O)cc1O [CMS-088, (E)-1-(2-hydroxy-4,5-dimethylphenyl)-3-(3-hydroxy-4-methoxyphenyl)prop-2-en-1-one] |  | no | no | 0.12 | 200 |  |  |  |  | 
COc1cc(-c2cc(=O)c3cc(C)c(C)cc3o2)ccc1O [CMS-064, 2-(4-hydroxy-3-methoxyphenyl)-6,7-dimethyl-4H-chromen-4-one] |  | no | no | 0.12 | 30 | < 40 |  |  |  | 34
COc1cc(-c2ccc(N3CCCC3)cc2)nc2ccccc12 [CMS-110, 4-methoxy-2-(4-(pyrrolidin-1-yl)phenyl)quinoline] | no | no | no | 0.27 |  |  |  |  |  | 
Cc1cc2oc(-c3ccc(O)cc3O)cc(=O)c2cc1C [CMS-094, 2-(2,4-dihydroxyphenyl)-6,7-dimethyl-4H-chromen-4-one] |  | no | no | 0.15 | > 500 |  |  |  |  | 
COc1cc(-c2cc(=O)c3cc(C)c(C)cc3o2)ccc1OCc1ccccc1 [CMS-058, 2-(4-(benzyloxy)-3-methoxyphenyl)-6,7-dimethyl-4H-chromen-4-one] |  | no | no | 0.09 | 500 |  |  |  |  | 
